Data reported in patent US7285555B2, “6-aryl-7-halo-imidazo[1,2-a]pyrimidines as anticancer agents” (Wyeth Holdings Corporation, priority 2003, dated 2007).

Assays:
pure tubulin = test: Tubulin polymerization test procedure with pure tubulin; format: biochemical, bovine; conditions: pure tubulin without added GTP
Method: (§1) Medium is RPMI-1640 with L-glutamine, supplemented with 10% heat-inactivated fetal calf serum, 100 units/mL penicillin, and 100 μg/mL streptomycin (Gibco, Grand Island, N.Y.). Microtubule-associated protein (MAP)-rich tubulin, containing about 70% tubulin and 30% MAPs (#ML113), and highly purified tubulin (>99% pure, #TL238), both from bovine brain, are obtained from Cytoskeleton, Inc., Denver, Colo. PEM buffer (80 mM piperazine-N,N′-bis[2-ethanesulfonic acid], pH 6.9, 1 mM ethylene glycol-bis(β-aminoethyl ether)-N,N,N′,N′-tetraacetic acid, 1 mM magnesium chloride) and guanosine 5′-triphosphate (GTP) are also obtained from Cytoskeleton. [^3H]paclitaxel, specific activity 14.7 Ci/mmol, is purchased from Moravek Biochemicals (Brea, Calif.). [^3H]vinblastine, specific activity 9.60 Ci/mmol and MicroSpin G-50 columns are obtained from Amersham Biosciences (Piscataway, N.J.). […] Other reagents are obtained from Sigma (St. Louis, Mo.).
The procedure with pure tubulin is similar except for the following changes. […] The supernatant after centrifugation is dispensed to a ½-area 96-well plate already containing compounds. Each compound is tested in duplicate at a final concentration of 24.3 μM. The plate reader μs thermostated at 35°.

MAP-rich tubulin = test: Tubulin polymerization test procedure with MAP-rich tubulin; format: biochemical, bovine; conditions: MAP-rich tubulin with 1 mM GTP, compound 0.3 μM, at 20 min
Method: as §1
MAP-rich tubulin is dissolved in ice-cold PEM buffer containing 1 mM GTP (GPEM buffer) at a concentration of 1.3 mg/mL. The solution is centrifuged at top speed in an Eppendorf model 5415C microcentrifuge (Brinkmann Instruments, Westbury, N.Y.) for 10 min at 40 immediately before use. The tubulin solution is added to wells of a ½-area 96-well plate (Costar No. 3696, Corning, Inc., Corning, N.Y.) already containing the compounds of interest. Each compound is tested in duplicate at a final concentration of 0.3 μM in a volume of 110 μL per well. The final DMSO concentration in all wells is 0.3%. Control reactions, which receive compound solvent only, are done in quadruplicate. The plate is put in a SpectraMax Plus plate reader (Molecular Devices Corp. Sunnyvale, Calif.) thermostated at 240 and the absorbance of each well at 340 nm, a measure of the appearance of turbidity due to tubulin polymer formation, is determined every minute for 60 minutes. The absorbance at time 0 for each well is subtracted from each of the subsequent absorbance readings for that well, and then the duplicates are averaged.
In this assay, control reactions with MAP-rich tubulin show an S-shaped absorbance profile characterized by three phases: first, a lag phase during which no change in absorbance occurs; second, a polymerization phase in which absorbance increases; and third, a plateau phase in which absorbance has reached a maximum and little or no further change occurs. Polymerization enhancers such as paclitaxel and docetaxel shorten or eliminate the lag phase, increase the rate of the polymerization phase, and often increase the height of the plateau. […] This has been expressed quantitatively in Table 6 by dividing the mean A340 of each sample at 20 min by the mean A340 of the control at 20 min to give a fold enhancement over control. […]

S1-M1 cells = test: MTS cytotoxicity test procedure with S1-M1 cells; format: cell-based, human; conditions: Homo sapiens; MTS assay, S1-M1 cells, means of 2 independent experiments
Description: (§2) Human cancer cell lines, unless otherwise noted, are obtained from the American Type Culture Collection (Rockville, Md.). The following drug-sensitive parental cell lines, and their derived drug-resistant counterparts, are obtained from the originators as listed: (a) S1 (parental line from a subclone of human colon carcinoma line LS174T) and derived S1-M1-3.2 (herein called S1-M1) which expresses the MXR drug transporter protein, are provided by Dr. L. Greenberger, Wyeth Research (Rabindran, S. K., He, H., Singh, M., Brown, E., Collins, K. I., Annable, T., and Greenberger, L. M. Reversal of a novel multidrug resistance mechanism in human colon carcinoma cells by fumitremorgin C. Cancer Res., 58: 5850-5858,1998); (b) parental HL-60 human promyelocytic leukemia line and derived HL-60/ADR, which expresses the MRP1 drug transporter protein, are provided by Dr. M. Center, University of Kansas (McGrath, T., and Center, M. S. Adriamycin resistance in HL60 cells in the absence of detectable P-glycoprotein. Biochem. Biophys. […] J. Biol. Chem., 261: 7762-7770, 1986) via Dr. L. Greenberger, Wyeth Research.
(§3) The MTS assay, which is sold in kit form by Promega (Madison, Wis.; CellTiter 96 AQueous Non-Radioactive Cell Proliferation Assay), is based on the conversion by viable cells, but not by dead cells, of the tetrazolium salt, MTS (3-(4,5-dimethylthiazol-2-yl)-5-(3-carboxymethoxyphenyl)-2-(4-sulphophenyl)-2H-tetrazolium, inner salt), into a water-soluble colored formazan which is detected by spectrophotometry. Compounds are tested at nine concentrations, in order to determine IC50 values. For the test procedure, cells are harvested by trypsinization (or, in the case of non-adherent cells, by simple resuspension), washed, counted and distributed to wells of 96-well flat-bottom microtiter plates at 1000 cells per well in 200 μL of medium. In addition, one row of wells on a separate plate receives cells as above (“time 0” plate). All plates are incubated at 370 in humidified 5% CO2 in air for about 24 hr.
(§4) On day 2, compounds for test are diluted and added to wells. Compounds are dissolved in DMSO at 10 mg/mL. For each compound, nine serial 2-fold dilutions are prepared in DMSO. Ten μL of each dilution in DMSO is transferred to 100 μL of medium, mixed well, and then 5 μL of this dilution is transferred in quadruplicate to wells containing cells. […] Plates are returned to the incubator for three days. At the time of drug addition to the experimental plates, the MTS assay is run on the “time 0” plate.
(§5) After three days of culture with test compounds (day 5 overall), the MTS assay is done on all wells of the experimental plates. The absorbance values of the quadruplicate sample wells are averaged and divided by the average of the “time 0” values. […]

HL-60/ADR cells = test: MTS cytotoxicity test procedure with HL-60/ADR cells; format: cell-based, human; conditions: Homo sapiens, HL60/ADR; MTS assay, HL-60/ADR cells, means of 2 independent experiments
Description: as §2, §3, §4
After three days of culture with test compounds (day 5 overall), the MTS assay is done on all wells of the experimental plates. The absorbance values of the quadruplicate sample wells are averaged and divided by the average of the “time 0” values. […] The nine values for each compound are plotted against concentration, and the concentration that produces a relative color yield half way between the maximum and minimum is taken as the IC50 value.
HL-60/ADR cells overexpress the multidrug resistance protein MRP1 which mediates resistance to some chemotherapeutics (Gottesman, M. M., Fojo, T., and Bates, S. E. Multidrug resistance in cancer: role of ATP-dependent transporters. Nature Rev. Cancer, 2: 48-58, 2002). The IC50 values of example 6 of this invention, as well as reference compounds, on HL-60/ADR are compared to values on the sensitive parental HL-60 line.

COLO 205 cells = test: MTS cytotoxicity test procedure with COLO 205 cells; format: cell-based; conditions: Homo sapiens, 72 h, MTS assay, three days of culture
Method: as §3
On day 2, compounds for test are diluted and added to wells. Compounds are dissolved in DMSO at 10 mg/mL. For each compound, nine serial 2-fold dilutions are prepared in DMSO. Ten μL of each dilution in DMSO is transferred to 100 μL of medium, mixed well, and then 5 μL of this dilution is transferred in quadruplicate to wells containing cells. The final high concentration of each compound is typically 1-5 μM. Plates are returned to the incubator for three days. At the time of drug addition to the experimental plates, the MTS assay is run on the “time 0” plate. This gives the “time 0 MTS value” which is related to the number of viable cells per well at the time of drug addition.
After three days of culture with test compounds (day 5 overall), the MTS assay is done on all wells of the experimental plates. The absorbance values of the quadruplicate sample wells are averaged and divided by the average of the “time 0” values. The average of control wells without drug, divided by the average “time 0” value, gives the maximal relative increase in MTS color yield due to cell growth during the final three days of culture. The average of control wells with high drug concentration, divided by the “time 0” value, gives the minimal relative color yield for cells that were completely killed. The nine values for each compound are plotted against concentration, and the concentration that produces a relative color yield half way between the maximum and minimum is taken as the IC50 value.
COLO 205 is a human colon carcinoma cell line that is used for comparative testing of the examples of this invention and several reference compounds (Table 1). This line is sensitive to paclitaxel and vincristine.

KB-V1 cells = test: MTS cytotoxicity test procedure with KB-V1 cells; format: cell-based, human; conditions: Homo sapiens, KB-V1; MTS assay, KB VI cells, means of 2 independent experiments
Description: as §2
The MTS assay, which is sold in kit form by Promega (Madison, Wis.; CellTiter 96 AQueous Non-Radioactive Cell Proliferation Assay), is based on the conversion by viable cells, but not by dead cells, of the tetrazolium salt, MTS (3-(4,5-dimethylthiazol-2-yl)-5-(3-carboxymethoxyphenyl)-2-(4-sulphophenyl)-2H-tetrazolium, inner salt), into a water-soluble colored formazan which is detected by spectrophotometry. Compounds are tested at nine concentrations, in order to determine IC50 values. For the test procedure, cells are harvested by trypsinization (or, in the case of non-adherent cells, by simple resuspension), washed, counted and distributed to wells of 96-well flat-bottom microtiter plates at 1000 cells per well in 200 μL of medium. […]
as §5

CC(=O)O[C@@]12CO[C@@H]1C[C@H](O)[C@@]1(C)C(=O)[C@H](O)C3=C(C)[C@@H](OC(=O)[C@H](O)[C@@H](NC(=O)OC(C)(C)C)c4ccccc4)C[C@@](O)([C@@H](OC(=O)c4ccccc4)[C@H]21)C3(C)C [Docetaxel, reference compound]
polymerization of pure tubulin without GTP (in words) (pure tubulin): able to induce polymerization
A340 Compound / A340 Control (fold enhancement over control) (MAP-rich tubulin): 5.4

COc1cccc2c1C(=O)c1c(O)c3c(c(O)c1C2=O)C[C@@](O)(C(=O)CO)C[C@@H]3O[C@H]1C[C@H](N)[C@H](O)[C@H](C)O1 [Doxorubicin, reference compound]
IC50 (S1-M1 cells): 2520 nM
IC50 (HL-60/ADR cells): 2080 nM

Fc1cc(F)c(-c2c(Cl)nc3nccn3c2N2CCCCCC2)c(F)c1 [Example 1, 5-azepan-1-yl-7-chloro-6-(2,4,6-trifluorophenyl)imidazo[1,2-a]pyrimidine]
melting point: 106 to 108 °C
IC50 (COLO 205 cells): 259 nM

Fc1cc(F)c(-c2c(Cl)nc3nccn3c2N2CCCCC2)c(F)c1 [Example 2, 7-Chloro-5-piperidin-1-yl-6-(2,4,6-trifluorophenyl)imidazo[1,2-a]pyrimidine]
IC50 (COLO 205 cells): 396 nM

Fc1cc(F)c(-c2c(Cl)nc3nccn3c2NCC(F)(F)F)c(F)c1 [Example 3, 7-chloro-N-(2,2,2-trifluoroethyl)-6-(2,4,6-trifluorophenyl)imidazo[1,2-a]pyrimidin-5-amine]
melting point: 155 to 157 °C
IC50 (COLO 205 cells): 742 nM

Fc1cc(F)c(-c2c(Cl)nc3nccn3c2C2CCCCCC2)c(F)c1 [Example 5, 7-Chloro-5-cycloheptyl-6-(2,4,6-trifluorophenyl)imidazo[1,2-a]pyrimidine]
IC50 (COLO 205 cells): 207 nM

O=C1c2c(O)ccc(O)c2C(=O)c2c(NCCNCCO)ccc(NCCNCCO)c21 [Mitoxantrone, reference compound]
IC50 (HL-60/ADR cells): 161 nM
IC50 (KB-V1 cells): 1930 nM
